Experiment [1] has as its target factor Xa (FXa) (Homo sapiens, UniProt P00742). The experiment in a line: FXa inhibitory activity assay (chromogenic substrate S-2765, absorbance at 405 nm). Conditions: in vitro enzymatic activity assay. The class given is biochemical.
Method: (§1) A stock solution of THR (125 U/mL) was prepared by dissolving 4.16 mg of THR in 1.0 mL of PBS. A stock solution of FXa (0.5 IU/mL) was prepared by dissolving 5.0 mg of FXa in 1.0 mL of PBS. Stock solutions of S-2238 (2 mg/mL) and S-2765 (2.5 mg/mL) were prepared in PBS. The DC extract samples (10 mg/mL) were prepared in a PBS buffer and diluted to 5.0 and 2.5 mg/mL as necessary.
(§2) THR and FXa inhibitory activity assays were performed with an iMark™ Microplate Absorbance Reader (Bio-Rad Laboratories, Inc., Hercules, CA, USA). A DC extract solution of 50 μL and a 50 μL THR solution were mixed and incubated for 10 min at 37 °C. Subsequently, a 100 μL S-2238 (2 mg/mL) solution as the chromogenic substrate was added to start the reaction in the microplate reader. The absorbance was monitored at 405 nm every 30 s for 10 min, and each group was measured three times. […] Except for the enzyme solution and chromogenic substrate, the procedure for assessing the FXa inhibitory activity was exactly the same as for THR. The inhibition rate (%) of THR and FXa was calculated using Formula (1). (1) I(%)=[(dA/dt)blank−(dA/dt)sample]/(dA/dt)blank where I(%) represents the % of inhibition, and (dA/dt)blank and (dA/dt)sample represent the reaction rate of the control and experimental group, respectively. The results were expressed as the mean ± standard deviation (SD) of three experiments.
Experiment [2] concerns the target T1, thrombin (THR) (Homo sapiens, UniProt P00734).
T1 construct: purchased Sigma-Aldrich
The experiment in a line: THR inhibitory activity assay (chromogenic substrate S-2238, absorbance at 405 nm). Conditions: in vitro enzymatic activity assay. The class given is biochemical.
Method: as §1, §2

Broadly, the IC50 is the midpoint of a concentration-inhibition curve.

factor Xa (FXa), sequence (P00742 235-488 limits assumed): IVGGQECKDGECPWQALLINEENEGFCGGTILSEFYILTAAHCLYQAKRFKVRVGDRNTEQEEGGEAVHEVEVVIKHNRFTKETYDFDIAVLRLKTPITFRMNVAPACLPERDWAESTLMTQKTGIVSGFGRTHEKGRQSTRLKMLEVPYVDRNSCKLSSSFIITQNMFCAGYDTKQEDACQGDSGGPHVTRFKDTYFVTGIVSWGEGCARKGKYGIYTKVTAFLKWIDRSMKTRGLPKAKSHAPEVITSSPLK
factor Xa (FXa), sequence (P00742 41-179 partner limits assumed): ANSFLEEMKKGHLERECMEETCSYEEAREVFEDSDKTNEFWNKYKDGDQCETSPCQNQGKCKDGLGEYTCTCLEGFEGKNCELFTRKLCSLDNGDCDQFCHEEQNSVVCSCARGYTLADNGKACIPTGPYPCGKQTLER

In experiment [1], `O=C(O)/C=C/c1ccc(O)c(O)c1` [Caffeic acid] had an IC50 of 3790 µM. Regarding `O=C(/C=C/c1ccc(O)c(O)c1)O[C@@H]1C[C@](O)(C(=O)O)C[C@@H](O)[C@H]1O` [Chlorogenic acid], in experiment [2], half-maximal inhibition (IC50) required 185 µM. As for `COc1cc(/C=C/C(=O)O)ccc1O` [Ferulic acid], in experiment [1], half-maximal inhibition (IC50) was put at 2490 µM. Regarding `Cc1coc2c1C(=O)C(=O)c1c-2ccc2c1CCCC2(C)C` [Tanshinone IIA], the IC50 in experiment [1] stood at 138 µM. `Cc1coc2c1C(=O)C(=O)c1c-2ccc2c(C)cccc12` [Tanshinone I] yielded an IC50 in experiment [1] of 113 µM.

In the case of `CCC/C=C1\OC(=O)C2=C1CCC=C2` [Z-ligustilide], half-maximal inhibition in experiment [2] (IC50) was put at 1460 µM.

Source of the values: PMC8658787, “Screening of Potential Thrombin and Factor Xa Inhibitors from the Danshen–Chuanxiong Herbal Pair through a Spectrum–Effect Relationship Analysis” (Molecules, 2021).
